Values of other authors in patent US11712474B2, “Reduction of post-surgery cancer metastasis by combination of cannabidiol and NR2F6 inhibition” (priority 2019, dated 2023).
Like-named read-outs stand apart in the source and are kept apart here.

Columns and labels:
[1] = test system: NOD mice
[2] = test system: mitogen-activated human peripheral blood mononuclear cells (PBMC)
[3] = cells of CBD-treated mice vs untreated control mice

Row | Compound | insulitis, histological examination of pancreatic islets ([1]; CBD-treated NOD mice) | plasma levels of pro-inflammatory cytokines IFN-gamma and TNF-alpha ([1]; CBD-treated NOD mice) | incidence of diabetes ([1]; CBD-treated NOD mice, 86% in non-treated control mice) [%] | Th1-associated cytokine production of in vitro activated T-cells and peritoneal macrophages [1, 3] | production of Th2-associated cytokines IL-4 and IL-10 [1, 3] | IL-2 secretion [2] | increase of the concentration of measurable IFN [2] [%] | measurable quantity of IL-1 [2] | measurable quantity of TNF [2] | synthesis and/or release of IFN ([2]; high concentrations, 5-20 micrograms/ml) | synthesis and/or release of IFN [2]
1 | C=C(C)[C@@H]1CCC(C)=C[C@H]1c1c(O)cc(CCCCC)cc1O [CBD, cannabidiol] | significantly reduced | significant reduction | 30 | significantly reduced | increased | no effect | 68 | decrease | decrease | completely blocked | 
2 | CCCCCc1cc(O)c2c(c1)OC(C)(C)[C@@H]1CCC(C)=C[C@@H]21 [THC, delta-9-tetrahydrocannabinol] |  |  |  |  |  | no effect | 139 |  |  |  | completely blocked
